Measurements as given in ChEMBL document CHEMBL1142291, “A novel bicyclic hexapeptide, RA-XVIII, from Rubia cordifolia: structure, semi-synthesis, and cytotoxicity” (Bioorg Med Chem Lett, 2008).
Values after ≈ are worked out from the molar mass of the structure shown.

Test system: P388
Assay: Cytotoxicity against mouse P388 cells
Format: functional, cell-based

Structure (SMILES)	IC50 [µg/mL]
COc1ccc(C[C@H]2C(=O)N[C@@H](C)C(=O)N(C)[C@H]3Cc4ccc(cc4)Oc4cc(c(N)cc4OC)C[C@@H](C(=O)N[C@H](C)C(=O)N[C@@H](C)C(=O)N2C)N(C)C3=O)cc1	0.7 (≈ 0.891 µM)
COc1ccc(C[C@H]2C(=O)N[C@@H](C)C(=O)N(C)[C@H]3Cc4ccc(cc4)Oc4cc(cc([N+](=O)[O-])c4OC)C[C@@H](C(=O)N[C@H](C)C(=O)N[C@@H](C)C(=O)N2C)N(C)C3=O)cc1	0.01 (≈ 0.0123 µM)
COc1ccc(C[C@H]2C(=O)N[C@@H](C)C(=O)N(C)[C@H]3Cc4ccc(cc4)Oc4cc(ccc4OC)C[C@@H](C(=O)N[C@H](C)C(=O)N[C@@H](C)C(=O)N2C)N(C)C3=O)cc1	0.003 (≈ 0.00389 µM)
COc1ccc(C[C@H]2C(=O)N[C@@H](C)C(=O)N(C)[C@H]3Cc4ccc(cc4)Oc4cc(c(O)cc4OC)C[C@@H](C(=O)N[C@H](C)C(=O)N[C@@H](C)C(=O)N2C)N(C)C3=O)cc1	0.093 (≈ 0.118 µM)
COc1ccc(C[C@H]2C(=O)N[C@@H](C)C(=O)N(C)[C@H]3Cc4ccc(cc4)Oc4cc(cc([N+](=O)[O-])c4O)C[C@@H](C(=O)N[C@H](C)C(=O)N[C@@H](C)C(=O)N2C)N(C)C3=O)cc1	0.014 (≈ 0.0175 µM)
COc1ccc(C[C@H]2C(=O)N[C@@H](C)C(=O)N(C)[C@H]3Cc4ccc(cc4)Oc4cc(cc(N)c4OC)C[C@@H](C(=O)N[C@H](C)C(=O)N[C@@H](C)C(=O)N2C)N(C)C3=O)cc1	0.0071 (≈ 0.00903 µM)
COc1ccc(C[C@H]2C(=O)N[C@@H](C)C(=O)N(C)[C@H]3Cc4ccc(cc4)Oc4cc(ccc4O)C[C@@H](C(=O)N[C@H](C)C(=O)N[C@@H](C)C(=O)N2C)N(C)C3=O)cc1 [DEOXYBOUVARDIN]	0.014 (≈ 0.0185 µM)
COc1ccc(C[C@H]2C(=O)N[C@@H](C)C(=O)N(C)[C@H]3Cc4ccc(cc4)Oc4cc(cc(O)c4OC)C[C@@H](C(=O)N[C@H](C)C(=O)N[C@@H](C)C(=O)N2C)N(C)C3=O)cc1	0.012 (≈ 0.0153 µM)
COc1ccc(C[C@H]2C(=O)N[C@@H](C)C(=O)N(C)[C@H]3Cc4ccc(cc4)Oc4cc(c([N+](=O)[O-])cc4OC)C[C@@H](C(=O)N[C@H](C)C(=O)N[C@@H](C)C(=O)N2C)N(C)C3=O)cc1	0.056 (≈ 0.0686 µM)
